The values that follow come from patent US10946098B2, “Activatable two-component photosensitizers” (Carnegie Mellon University, priority 2014, dated 2021).

Data set [1] is described as follows: Singlet oxygen quantum yield by ADPA bleaching, AlPcS4 standard. The data set is classed as physicochemical. Conditions: singlet oxygen quantum yield of FAP-fluorogen. The method, then: Determination of singlet oxygen quantum yield: PBS 7.4 solution contains 0.1 mM ADPA and optically matched samples are illuminated from a 660 nm LED source, at different time point, its fluorescence decrease at 374/402 nm was recorded, the data was then fitted into a linear plot, the ψΔ was then calculated from the slopes using the equation below.
To test the two-component FAP photosensitizer ability to generate singlet oxygen, anthracene-9, 10-dipropionic acid (ADPA), a commonly used singlet oxygen scavenger, was used. This was done by monitoring the fluorescence disappearance of ADPA at 374/402 nm. Aluminum phthalocyanine tetrasulfonate (AlPcS4) was used as the standard for the measurement of ^1O2 generation (ψΔ=0.34). Optically matched solutions of MG2I-dL5 and AlPcS4 at 660 nm are compared and the singlet oxygen quantum yield of the two-component FAP photosensitizer is estimated to be 0.13 (FIG. 8). […] This confirmed the specific generation of singlet oxygen from the complex. Importantly, both the fluorescent quantum yield and the singlet oxygen quantum yield of free dyes are not detectable under normal excitation conditions, due to the very short excited state lifetime (<1 […]). […] Moreover, with near infrared excitation, this genetically encoded complex is accessible for a range of tumors and can also be used as tool for tumor visualization with fair fluorescence.

Data set [2] can be described thus: Absorbance of free fluorogens. The data set is classed as physicochemical. Conditions: for x band abs max (nm) / y band abs max (nm) / λAbs (nm) (Fluorogen): free fluorogen; for ε (10^4 M^−1cm^−1): second value in parentheses not explained.
For data set [3], the system named is dL5. Put plainly: Fluorescence excitation/emission of fluorogen bound to dL5. The data set is classed as physicochemical. Particulars: for λem (nm) / λex (nm): FAP-fluorogen complex; for +dL5 fluor ex (nm): main value.
Data set [4] has as its target dL5. Put plainly: KD measurement of fluorogen-dL5. Particulars: fluorogen binding to dL5. The method, then:
(§1) FIGS. 7A-7C: FIG. 7A) KD measurement of MG-dL5 and MG2I-dL5, FIG. 7B) absorption spectra of 1 μM MG2I and MG2I with 5 μM dL5 (shorter wavelength absorption peak), FIG. 7C): fluorescence quantum yield measurement of MG2I-dL5 (squares) using Cy5 as standard (circles).
The iodination effect produces a 22 nm bathochromic shift of the x band of free MG while maintaining the FAP-fluorogen interactions. The iodination also renders the excitation maximum of MG2I-dL5 to 666 nm (compare to MG-dL5 at 633 nm), into the near infrared range (Table 1). FIGS. 7A-7C depict (FIG. 7A) KD measurement of MG-dL5 and MG2I-dL5, (FIG. 7B) absorption spectra of 1 μM MG2I and MG2I with 5 μM dL5 (shorter wavelength absorption peak), and (FIG. 7C) fluorescence quantum yield measurement of MG2I-dL5 (squares) using Cy5 as standard (circles).

Data set [5] concerns cardiac function of zebrafish larvae. The data set can be described thus: Photo-ablation of cardiac function of larval zebrafish. The data set is classed as in vivo. Particulars: 500 nM fluorogen 3 hours. From the text: MG2I-FAP induced photo-ablation of cardiac function of transgenic zebrafish. […] In both control groups, development proceeded normally. Scale Bar=1000 μm and applied to all images.
First, transgenic zebrafish lines were produced that expressed a cytoplasmic FAP-mCerulean3 (FAP-mCer3) tandem protein under control of the heart-specific myosin light chain 7 (my17, also known as cmlc2) promoter, Tg(my17: FAP-mCer3). […] FIG. 19 are photomicrographs of zebrafish larvae as described above. White denotes the presence of cytoplasmic FAP-mCerulean3 in live cells.

Data set [6] relates to dL5. Put plainly: Fluorescence quantum yield using Cy5 as standard. The data set is classed as physicochemical. Particulars: fluorescence quantum yield of FAP-fluorogen, PBS7.4. The method, then: as §1
The 3, 5-diiodo-4-hydroxybenzaldehyde, anthracene-9, 10-dipropionic acid disodium salt ADPA, were purchased from VWR international and Sigma-Aldrich, tetrasulfonated aluminum phthalocyanine AlPcS4 from frontier scientific, PEG-catalase, PEG-SOD, hoechst dye 33342, live/dead cell viability/cytotoxicity kit L-3224 and dihydroethidium (hydroethidine) D11347 were from Molecular Probes. Basic media was from Invitrogen. H NMR and C NMR data are recorded from Bruker Avance™ 300 MHz and 500 MHz. Mass spectra are obtained from Thermo-Fisher LCQ ESI/APCI Ion Trap. Final products are purified by silica, neutral alumina and reverse-phase chromatography, purity were tested by UPLC. Raw absorbance values of respective free dyes and dye-FAP complex were measured on a PerkinElmer Lambda45 spectrophotometer. Fluorogenic enhancement was measured in 96 well microplates on a Tecan Safire2 reader. Quantum yields were determined by comparing integrated spectra of MG2I-dL5 complexes with Cy5 in PBS7.4 on a Quantamaster monochromator fluorimeter (Photon Technology International).

For data set [7], the system named is HEK cells transfected to express FAP.
Description: Dead/Live cell viability assay: 400 nM dye (MG/MG-2I) was pre-complex with cells for 30 mins. After illumination, the buffer was replaced with 2 μM calcein AM and 4 μM EthD-1 working solution. After 30 min incubation at room temperature, the two-color fluorescence cell viability test was conducted with the cells.
Cell killing experiment and cell death count: MG/MG2I was added to the cells 30 minutes before illumination (for A431 and SKBR3 cells, affibody conjugated FAP was added 1 hour prior to illumination). Microscope and light box are used as illumination source, different light dose are achieved by changing of light intensity or illumination time. For death cell counting, the medium was replaced with PBS containing 1 uM propidium iodide and 8 uM Hoechst right after illumination. After 30 min incubation, cells were counted and the death cell ratio is determined by the ratio of PI to Hoechst.
The light induced cytotoxicity of two-component FAP photosensitizer on HEK cells, which were transfected to express FAP on cell surface, was tested. 400 nM MG2I/MG was added to the cell medium 30 minutes prior to illumination; 1 minute of continuous red light illumination from a confocal microscope was applied to cells (40× objective, 640 nm excitation, 0.76 W/cm^2).
The cause of MG2I-dL5 induced cell cytotoxicity was further delineated by adding different ROS quenchers to the solutions.
Data set [8] in a line: Recombinant ZEGFR:1907/FAPdL5** probes binding to malachite green. Particulars: for Kd / kon (*10^6M^−1S^−1): binding to malachite green; for Em (nm) / Ex (nm): probe with MG. The method, then:
N and C-terminal fusions were evaluated, as well as a single FAP flanked by two affibodies for their properties to bind and activate MG-fluorogens as well as their binding to target receptors on cultured cells.
Characterization of recombinant probes affibody ZEGFR:1907 (A) and FAPdL5** (F) binding to malachite green.

In data set [9] the test system is cell surface EGFR (A431 cells). The data set can be described thus: Cell surface EGFR labeling by ZEGFR:1907 fusion probes on A431 cells. The data set is classed as binding, human. The method, then: The labeling of cell surface EGFR by ZEGFR:1907 fusion probes was tested with A431 cells, a cell line that expressed EGFR at high levels, ˜2000000/cell. […] By equilibrium binding fluorescence, the cell surface dissociation constant was estimated to be 122±16 nM for AF, 101±17 nM for FA and 37±6 nM for AFA.

For data set [10] the following is noted: standard for 1O2 generation; cited from earlier work.
Data set [11] deals with EGFR over-expressing tumor cells A431. The data set can be described thus: Selective cancer cell killing, A431 mixed with wild-type HEK. The data set is classed as cell-based. Conditions: 250 nM affiFAP (FAP-conjugated HER1 affibody) then 250 nM dye. The method, then: AffiFAP/FAP was added first and allow cell targeting for 30 minutes, MG2I/MG-ester was then added and incubated for another 30 minutes (No washing is needed in the process). After 1 min illumination (60× objective, 2.43 W/cm^2), Dead/Live working solution was used to replace the cell culture medium. Two-color viability fluorescence assay was performed after 1 hr staining
(§2) FAP-conjugated HER1 affibody was used to target EGFR over-expressing tumor cells A431 in cell cultures mixed with wild-type HEK cells. 250 nM affiFAP was first added to label A431 cells, followed by 250 nM MG2I/MG. […] It is shown that the tumor cells need to be targeted first by the HER1-dL5 affibody, and become accessible to photosentisization only after MG2I is added and bound to the affiFAP. […] Thus, by controlling the specific generation of singlet oxygen on the tumor site, we can eliminate the nonspecific damage to normal cells. […] This improvement to the current state-of-the-art photodynamic therapy will be of great utility, for example with the methods and modularity described herein.

The test system of the next data set is cells. Put plainly: Toxicity of free MG2I to cells. The data set is classed as cell-based.
The next data set has as its system SKBR3 cancer cells. The data set can be described thus: Selective killing of SKBR3 cancer cells. The data set is classed as cell-based. Particulars: 100 nM HER2 conjugated dL5 then 100 nM MG2I. The method, then: 100 nM HER2 conjugated dL5 was first added to the cells following by 100 nM MG2I.
as §2

A further data set deals with wild-type HEK cells. The data set is classed as cell-based. The method, then:
as §2

[12] abbreviates: transgenic Tg(my17: FAP-mCer3), 48 hpf, 12 minutes 659 nm 242 mW/cm^2.

Read-outs that look alike come from different tables or passages of the source. Some results are limits rather than exact numbers.

In general, Kd refers to the free concentration of one partner at which half of the binding sites on the other are occupied at equilibrium, for simple one-to-one binding. In data set [1], `CCOC(=O)CCCOc1ccc(C(=C2C=CC(=[N+](C)C)C=C2)c2ccc(N(C)C)cc2)cc1` [MG, reference compound] yielded a ΦΔ of less than 0.005. For the same molecule, in data set [2], the “x band abs max (nm)” value worked out at 606 nm, the “y band abs max (nm)” value turned out to be 466 nm, the “λAbs (nm) (Fluorogen)” value is 606 nm and the “ε (10^4 M^−1cm^−1)” value is listed as 10.3(9.18) 10^4 M^−1cm^−1. In the data set with dL5 [3], the “λem (nm)” value stood at 668 nm and the “λex (nm)” value came out at 633 nm. Further, in the data set on dL5 [3] (bound to dL5), the “+dL5 fluor em (nm)” value is recorded as 668 nm and the “+dL5 fluor ex (nm)” value came out at 636 nm. Also, the “+dL5 fluor ex (nm), value in parentheses” value in the data set on dL5 [3] (bound to dL5, second (minor) excitation peak printed in parentheses) is reported as 482 nm. The Kd on dL5 [4] was found to be 0.005 nM. In addition, the “heart function immediately after illumination” value (shortened to “heart function immediately”) in [5] (setting [12]) was “normal”. This molecule also had a ΦF with dL5 [6] of 0.123.
For `[N-]=[N+]=[N-]` [sodium azide, reference compound], the “inhibition of MG2I-dL5 induced cytotoxicity by ROS quencher” value in [7] (concentrations higher than 10 mM) is recorded as “totally inhibited”.
Take “AF: fusion of affibody ZEGFR:1907 (A) and FAPdL5** (F)”: in data set [8], the Kd is 0.43 ± 0.12 nM, the “kon (*10^6M^−1S^−1)” value was 1.05 *10^6M^−1S^−1, the “Em (nm)” value was 664 nm and the “Ex (nm)” value came out at 634 nm. In data set [8] (in the presence of MG), the emission peak was found to be 664 nm, the major excitation peak turned out to be 636 nm and the minor excitation peak is 480 nm. The “cell surface labeling, live-cell imaging” value in data set [9] is “clear cell surface labeling”.
With “AFA: single FAPdL5** flanked by two ZEGFR:1907 affibodies”, in [8], the Kd was 0.53 ± 0.11 nM, the “kon (*10^6M^−1S^−1)” value is listed as 1.02 *10^6M^−1S^−1, the “Em (nm)” value was determined as 666 nm and the “Ex (nm)” value came out at 634 nm. In data set [8] (in the presence of MG), the emission peak was found to be 664 nm; the “fluorescence intensity compared to F and AF” value is “enhanced fluorescence intensity”; the major excitation peak is listed as 636 nm; the minor excitation peak is 480 nm. Besides, the “cell surface labeling, live-cell imaging” value in data set [9] was “clear cell surface labeling”.
Consider “Aluminum phthalocyanine tetrasulfonate [AlPcS4]”, for which, in [10], the ψΔ of standard is 0.34.
Consider “Methylium, bis[4-(dimethylamino)phenyl](4-(3-carboethoxypropyl)-3,5-diiodo-phenyl)-chloride [MG2I]”, for which, in data set [1], the ΦΔ turned out to be 0.13. Further, the “killing of A431 cells upon illumination” value in data set [11] is on record as “only the EGFR1-expressing tumor cells were killed”. Moreover, in data set [2], the “x band abs max (nm)” value is on record as 628 nm, the “y band abs max (nm)” value is reported as 440 nm, the “λAbs (nm) (Fluorogen)” value is given as 628 nm and the “ε (10^4 M^−1cm^−1)” value was 10.1(9.02) 10^4 M^−1cm^−1. Besides, in data set [2] (iodination effect), the “bathochromic shift of the x band relative to free MG” value came to 22 nm. Moreover, in the data set on cells, the toxicity to cells result is listed as “no toxicity to cells”. The “killing of SKBR3 cells” value with SKBR3 cancer cells is “selective killing”. For the same molecule, in the data set on dL5 [3], the “λem (nm)” value came out at 693 nm and the “λex (nm)” value was found to be 666 nm. For the same molecule, in the data set on dL5 [3] (bound to dL5), the “+dL5 fluor em (nm)” value was 693 nm and the “+dL5 fluor ex (nm)” value came to 666 nm. On dL5 [4], this molecule came in with a Kd of 0.073 nM. The light induced cytotoxicity result in the data set with wild-type HEK cells is on record as “no observed light-induced cytotoxicity”. The “heart function immediately” value in data set [5] (setting [12]) is reported as “no sign of heart beat or blood circulation”. In addition, the “heart function immediately” value in data set [5] (wild-type zebrafish, 12 minutes 659 nm) was “normal”. Moreover, the ΦF with dL5 [6] was found to be 0.037.
For the molecule “affibody: affibody ZEGFR:1907 alone (SEQ ID NO: 18)”, the “fluorescence activation or fluorogen binding by affibody alone” value in data set [8] was “No detectable fluorescence activation or fluorogen binding”.

B1: catalase: ROS quencher enzyme (protein, UniProt P00432 2-527, looked up)
Catalase: ADNRDPASDQMKHWKEQRAAQKPDVLTTGGGNPVGDKLNSLTVGPRGPLLVQDVVFTDEMAHFDRERIPERVVHAKGAGAFGYFEVTHDITRYSKAKVFEHIGKRTPIAVRFSTVAGESGSADTVRDPRGFAVKFYTEDGNWDLVGNNTPIFFIRDALLFPSFIHSQKRNPQTHLKDPDMVWDFWSLRPESLHQVSFLFSDRGIPDGHRHMNGYGSHTFKLVNANGEAVYCKFHYKTDQGIKNLSVEDAARLAHEDPDYGLRDLFNAIATGNYPSWTLYIQVMTFSEAEIFPFNPFDLTKVWPHGDYPLIPVGKLVLNRNPVNYFAEVEQLAFDPSNMPPGIEPSPDKMLQGRLFAYPDTHRHRLGPNYLQIPVNCPYRARVANYQRDGPMCMMDNQGGAPNYYPNSFSAPEHQPSALEHRTHFSGDVQRFNSANDDNVTQVRTFYLKVLNEEQRKRLCENIAGHLKDAQLFIQKKAVKNFSDVHPEYGSRIQALLDKYNEEKPKNAVHTYVQHGSHLSAREKANL
modifications: PEG
For B1, in [7] (up to 1000 U/mL), the “inhibition of MG2I-dL5 induced cytotoxicity by ROS quencher” value is reported as “very little effect in rescuing cell death”.
